Laboratory results taken from PubChem BioAssay (NCI).
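1) Cells in 96-well plates. 2) Compound, 48 h, 5 concentrations. 3) Linear interpolation between surrounding doses. 4) Unreached endpoint = highest concentration. The concentration for 50% growth inhibition is given as GI50. At the TGI there is no net growth.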

How the values were obtained:
Experiment in all cases: NCI tumour cell line growth inhibition, 48 h
SK-OV-3 ovarian = system: SK-OV-3 ovarian
LOX IMVI melanoma = system: LOX IMVI melanoma
MDA-MB-231 breast = system: MDA-MB-231 breast
RXF 393 renal = system: RXF 393 renal
BT-549 breast = system: BT-549 breast
UO-31 renal = system: UO-31 renal
M14 melanoma = system: M14 melanoma
CCRF-CEM leukemia = system: CCRF-CEM leukemia
SK-MEL-2 melanoma = system: SK-MEL-2 melanoma
HOP-62 NSCLC = system: HOP-62 NSCLC
OVCAR-3 ovarian = system: OVCAR-3 ovarian
MDA-MB-468 breast = system: MDA-MB-468 breast
SW-620 colon = system: SW-620 colon
NCI-H226 lung = system: NCI-H226 lung
DU-145 prostate = system: DU-145 prostate
ACHN renal = system: ACHN renal
K-562 leukemia = system: K-562 leukemia
CAKI-1 renal = system: CAKI-1 renal
PC-3 prostate = system: PC-3 prostate
MOLT-4 leukemia = system: MOLT-4 leukemia
SK-MEL-28 melanoma = system: SK-MEL-28 melanoma
NCI-H460 lung = system: NCI-H460 lung
SF-295 CNS = system: SF-295 CNS
HL-60(TB) leukemia = system: HL-60(TB) leukemia
SR leukemia = system: SR leukemia
HT29 colon = system: HT29 colon
HCC-2998 colon = system: HCC-2998 colon
T-47D breast = system: T-47D breast
U251 CNS = system: U251 CNS
786-0 renal = system: 786-0 renal
SK-MEL-5 melanoma = system: SK-MEL-5 melanoma
SNB-19 CNS = system: SNB-19 CNS
IGROV1 ovarian = system: IGROV1 ovarian
OVCAR-8 ovarian = system: OVCAR-8 ovarian
SN12C renal = system: SN12C renal
UACC-62 melanoma = system: UACC-62 melanoma
A549 NSCLC = system: A549 NSCLC
HCT-15 colon = system: HCT-15 colon
RPMI-8226 leukemia = system: RPMI-8226 leukemia
SF-268 CNS = system: SF-268 CNS
HCT-116 colon = system: HCT-116 colon
EKVX NSCLC = system: EKVX NSCLC
MALME-3M melanoma = system: MALME-3M melanoma
MCF7 breast = system: MCF7 breast
NCI-H522 lung = system: NCI-H522 lung
SF-539 CNS = system: SF-539 CNS
OVCAR-4 ovarian = system: OVCAR-4 ovarian
NCI-H23 lung = system: NCI-H23 lung
HS 578T breast = system: HS 578T breast
OVCAR-5 ovarian = system: OVCAR-5 ovarian
A498 renal = system: A498 renal
COLO 205 colon = system: COLO 205 colon
SNB-75 CNS = system: SNB-75 CNS
KM12 colon = system: KM12 colon
TK-10 renal = system: TK-10 renal
HOP-92 NSCLC = system: HOP-92 NSCLC

O=C(Nc1cccc(-c2cn(-c3ccc4oc(=O)ccc4c3)nn2)c1)Nc1cc(C(F)(F)F)cc(C(F)(F)F)c1
GI50 (SK-OV-3 ovarian): 18.6 µM | TGI (SK-OV-3 ovarian): > 100 µM | GI50 (LOX IMVI melanoma): 7.55 µM | TGI (LOX IMVI melanoma): > 100 µM | GI50 (MDA-MB-231 breast): 18.2 µM | TGI (MDA-MB-231 breast): > 100 µM | GI50 (RXF 393 renal): 2.44 µM | TGI (RXF 393 renal): 8.47 µM | GI50 (BT-549 breast): 7.19 µM | TGI (BT-549 breast): > 100 µM | GI50 (UO-31 renal): 6.34 µM | TGI (UO-31 renal): > 100 µM | GI50 (M14 melanoma): > 100 µM | TGI (M14 melanoma): > 100 µM | GI50 (CCRF-CEM leukemia): 3.31 µM | TGI (CCRF-CEM leukemia): > 100 µM | GI50 (SK-MEL-2 melanoma): 5.55 µM | TGI (SK-MEL-2 melanoma): 25.7 µM | GI50 (HOP-62 NSCLC): 8.08 µM | TGI (HOP-62 NSCLC): 66.9 µM | GI50 (OVCAR-3 ovarian): 3.31 µM | TGI (OVCAR-3 ovarian): > 100 µM | GI50 (MDA-MB-468 breast): 2.43 µM | TGI (MDA-MB-468 breast): 8.69 µM | GI50 (SW-620 colon): 55.5 µM | TGI (SW-620 colon): > 100 µM | GI50 (NCI-H226 lung): 5.57 µM | TGI (NCI-H226 lung): > 100 µM | GI50 (DU-145 prostate): 8.09 µM | TGI (DU-145 prostate): > 100 µM | GI50 (ACHN renal): 6.86 µM | TGI (ACHN renal): 90.2 µM | GI50 (K-562 leukemia): 3.25 µM | TGI (K-562 leukemia): > 100 µM | GI50 (CAKI-1 renal): 6.3 µM | TGI (CAKI-1 renal): > 100 µM | GI50 (PC-3 prostate): 4.07 µM | TGI (PC-3 prostate): > 100 µM | GI50 (MOLT-4 leukemia): 3.82 µM | TGI (MOLT-4 leukemia): > 100 µM | GI50 (SK-MEL-28 melanoma): > 100 µM | TGI (SK-MEL-28 melanoma): > 100 µM | GI50 (NCI-H460 lung): 4.81 µM | TGI (NCI-H460 lung): > 100 µM | GI50 (SF-295 CNS): 3.31 µM | TGI (SF-295 CNS): > 100 µM | GI50 (HL-60(TB) leukemia): 6.5 µM | TGI (HL-60(TB) leukemia): > 100 µM | GI50 (SR leukemia): 5.63 µM | TGI (SR leukemia): > 100 µM | GI50 (HT29 colon): > 100 µM | TGI (HT29 colon): > 100 µM | GI50 (HCC-2998 colon): 8.14 µM | TGI (HCC-2998 colon): > 100 µM | GI50 (T-47D breast): 3.14 µM | TGI (T-47D breast): > 100 µM | GI50 (U251 CNS): 4.69 µM | TGI (U251 CNS): > 100 µM | GI50 (786-0 renal): 12.6 µM | TGI (786-0 renal): 68.1 µM | GI50 (SK-MEL-5 melanoma): 4.18 µM | TGI (SK-MEL-5 melanoma): > 100 µM | GI50 (SNB-19 CNS): 10.1 µM | TGI (SNB-19 CNS): 89.8 µM | GI50 (IGROV1 ovarian): 8.87 µM | TGI (IGROV1 ovarian): > 100 µM | GI50 (OVCAR-8 ovarian): 5.73 µM | TGI (OVCAR-8 ovarian): > 100 µM | GI50 (SN12C renal): 6.31 µM | TGI (SN12C renal): > 100 µM | GI50 (UACC-62 melanoma): 6.8 µM | TGI (UACC-62 melanoma): > 100 µM | GI50 (A549 NSCLC): 5.1 µM | TGI (A549 NSCLC): > 100 µM | GI50 (HCT-15 colon): 5.15 µM | TGI (HCT-15 colon): > 100 µM | GI50 (RPMI-8226 leukemia): 2.88 µM | TGI (RPMI-8226 leukemia): > 100 µM | GI50 (SF-268 CNS): 21.3 µM | TGI (SF-268 CNS): > 100 µM | GI50 (HCT-116 colon): 7.17 µM | TGI (HCT-116 colon): > 100 µM | GI50 (EKVX NSCLC): 5.04 µM | TGI (EKVX NSCLC): > 100 µM | GI50 (MALME-3M melanoma): 28.2 µM | TGI (MALME-3M melanoma): > 100 µM | GI50 (MCF7 breast): 4.41 µM | TGI (MCF7 breast): > 100 µM | GI50 (NCI-H522 lung): 4.39 µM | TGI (NCI-H522 lung): > 100 µM | GI50 (SF-539 CNS): 15.1 µM | TGI (SF-539 CNS): > 100 µM | GI50 (OVCAR-4 ovarian): 3.42 µM | TGI (OVCAR-4 ovarian): > 100 µM | GI50 (NCI-H23 lung): 3.34 µM | TGI (NCI-H23 lung): > 100 µM | GI50 (HS 578T breast): 5.16 µM | TGI (HS 578T breast): > 100 µM | GI50 (OVCAR-5 ovarian): > 100 µM | TGI (OVCAR-5 ovarian): > 100 µM | GI50 (A498 renal): 20.7 µM | TGI (A498 renal): > 100 µM | GI50 (COLO 205 colon): > 100 µM | TGI (COLO 205 colon): > 100 µM | GI50 (SNB-75 CNS): 10.2 µM | TGI (SNB-75 CNS): 45.1 µM | GI50 (KM12 colon): 5.2 µM | TGI (KM12 colon): > 100 µM | GI50 (TK-10 renal): 13.4 µM | TGI (TK-10 renal): 56.9 µM | GI50 (HOP-92 NSCLC): 3.66 µM | TGI (HOP-92 NSCLC): 31.3 µM
